{
  "source": "PubChem BioAssay (NCI)",
  "assay_in_all_cases": "DTP human tumour cell line panel, 48 h",
  "key": {"BT-549 breast": {"tested_on": "BT-549 breast"}, "M14 melanoma": {"tested_on": "M14 melanoma"}, "MDA-MB-435": {"tested_on": "MDA-MB-435"}, "OVCAR-8 ovarian": {"tested_on": "OVCAR-8 ovarian"}, "RXF 393 renal": {"tested_on": "RXF 393 renal"}, "T-47D breast": {"tested_on": "T-47D breast"}, "786-0 renal": {"tested_on": "786-0 renal"}, "MALME-3M melanoma": {"tested_on": "MALME-3M melanoma"}, "HT29 colon": {"tested_on": "HT29 colon"}, "UACC-257 melanoma": {"tested_on": "UACC-257 melanoma"}, "DU-145 prostate": {"tested_on": "DU-145 prostate"}, "TK-10 renal": {"tested_on": "TK-10 renal"}, "SK-MEL-28 melanoma": {"tested_on": "SK-MEL-28 melanoma"}, "EKVX NSCLC": {"tested_on": "EKVX NSCLC"}, "SW-620 colon": {"tested_on": "SW-620 colon"}, "OVCAR-3 ovarian": {"tested_on": "OVCAR-3 ovarian"}, "KM12 colon": {"tested_on": "KM12 colon"}, "SK-OV-3 ovarian": {"tested_on": "SK-OV-3 ovarian"}, "HCC-2998 colon": {"tested_on": "HCC-2998 colon"}, "OVCAR-5 ovarian": {"tested_on": "OVCAR-5 ovarian"}, "OVCAR-4 ovarian": {"tested_on": "OVCAR-4 ovarian"}, "NCI-H226 lung": {"tested_on": "NCI-H226 lung"}, "LOX IMVI melanoma": {"tested_on": "LOX IMVI melanoma"}, "SK-MEL-2 melanoma": {"tested_on": "SK-MEL-2 melanoma"}, "HOP-92 NSCLC": {"tested_on": "HOP-92 NSCLC"}},
  "note": "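Exposure lasted 48 hours, with cells grown in 96-well plates and compounds tested at five concentrations. TGI denotes the concentration required for complete inhibition of growth.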",
  "data": [
    {"smiles": "COc1ccc(OC)c2c3c([nH]c12)C(=O)Nc1nc(N)nc(N)c1C3", "values": [
      {"measurement": "TGI", "setting": "BT-549 breast", "value": "> 100", "unit": "µM"},
      {"measurement": "TGI", "setting": "M14 melanoma", "value": "> 100", "unit": "µM"},
      {"measurement": "TGI", "setting": "MDA-MB-435", "value": "> 100", "unit": "µM"},
      {"measurement": "TGI", "setting": "OVCAR-8 ovarian", "value": "> 100", "unit": "µM"},
      {"measurement": "TGI", "setting": "RXF 393 renal", "value": "> 100", "unit": "µM"},
      {"measurement": "TGI", "setting": "T-47D breast", "value": "> 100", "unit": "µM"},
      {"measurement": "TGI", "setting": "786-0 renal", "value": "> 100", "unit": "µM"},
      {"measurement": "TGI", "setting": "MALME-3M melanoma", "value": "> 100", "unit": "µM"},
      {"measurement": "TGI", "setting": "HT29 colon", "value": 4.49, "unit": "µM"},
      {"measurement": "TGI", "setting": "UACC-257 melanoma", "value": "> 100", "unit": "µM"},
      {"measurement": "TGI", "setting": "DU-145 prostate", "value": "> 100", "unit": "µM"},
      {"measurement": "TGI", "setting": "TK-10 renal", "value": "> 100", "unit": "µM"},
      {"measurement": "TGI", "setting": "SK-MEL-28 melanoma", "value": "> 100", "unit": "µM"},
      {"measurement": "TGI", "setting": "EKVX NSCLC", "value": "> 100", "unit": "µM"},
      {"measurement": "TGI", "setting": "SW-620 colon", "value": "> 100", "unit": "µM"},
      {"measurement": "TGI", "setting": "OVCAR-3 ovarian", "value": "> 100", "unit": "µM"},
      {"measurement": "TGI", "setting": "KM12 colon", "value": "> 100", "unit": "µM"},
      {"measurement": "TGI", "setting": "SK-OV-3 ovarian", "value": "> 100", "unit": "µM"},
      {"measurement": "TGI", "setting": "HCC-2998 colon", "value": "> 100", "unit": "µM"},
      {"measurement": "TGI", "setting": "OVCAR-5 ovarian", "value": "> 100", "unit": "µM"},
      {"measurement": "TGI", "setting": "OVCAR-4 ovarian", "value": "> 100", "unit": "µM"},
      {"measurement": "TGI", "setting": "NCI-H226 lung", "value": "> 100", "unit": "µM"},
      {"measurement": "TGI", "setting": "LOX IMVI melanoma", "value": "> 100", "unit": "µM"},
      {"measurement": "TGI", "setting": "SK-MEL-2 melanoma", "value": "> 100", "unit": "µM"},
      {"measurement": "TGI", "setting": "HOP-92 NSCLC", "value": "> 100", "unit": "µM"}
    ]}
  ]
}
